For series [1] the following is noted: background, cited from earlier work.
Series [2] has as its system Streptococcus mutans. In words: Agar diffusion test with Streptococcus mutans (inhibiting zone diameters). Format: cell-based. To be noted: for Antibacterial action (in words): 0.003 wt.-%; for Bactericidal effectiveness (in words): concentrations smaller than or equal to 0.01 wt.-%. As to the method: For this purpose, culture suspensions of Streptococcus mutans were added to a liquid Agar comprising yeast extract and dextrose. After the Agar plates had solidified, a hole of 10 mm diameter was cut out, into which 0.1 ml of the solution to be tested was poured in each case. After 24 hours of incubation at 37° C., the diameters of the inhibiting zones were measured for each sample, which were duplicated in each case.

Series [3] in a line: Side-effects in use (bitter taste, discolorations, irritations of the mucosa).
Series [4] in a line: Solubility in common solvents and reactive diluents. Type of series: physicochemical.
The conditions of series [5]: higher concentrations; cited from earlier work.
For series [6], the system named is Streptococcus mutans. The conditions noted are these: cited from earlier work.
Where [7] appears, read: 0.03 wt. %, 0.1 ml in 10 mm hole, 24 hours, 37° C.

Structures are written as SMILES. Values after ≈ are worked out from the molar mass of the structure shown. Read-outs that look alike come from different tables or passages of the source.

Results on 5 compounds are retold here after patent US5304369A, “Chlorohexidine adduct and method of preparing same” (Ivoclar AG, priority 1991, dated 1994).

`[H]/N=C(\N/C(=N/[H])NCCCCCCNC(=N)NC(=N)Nc1ccc(Cl)cc1)Nc1ccc(Cl)cc1` [Solution A]: the “Solubility (in words)” value in series [1] (listed as digluconate) is recorded as “water-soluble”. For the same compound, the zone of inhibition at 0.003 % in the series with Streptococcus mutans [2] (Streptococcus mutans, 24 h, 0.003 wt. %, 0.1 ml in 10 mm hole, 24 hours, 37° C., * = Not effective, read-out: Inhibiting zone diameter) is 11 mm. Besides, the zone of inhibition at 0.01 % with Streptococcus mutans [2] (Streptococcus mutans, 24 h, 0.01 wt. %, 0.1 ml in 10 mm hole, 24 hours, 37° C., read-out: Inhibiting zone diameter) stood at 13 mm. Further, in the series on Streptococcus mutans [2] (Streptococcus mutans, 24 h, 0.03 wt. %, 0.1 ml in 10 mm hole, 24 hours, 37° C., read-out: Inhibiting zone diameter), the zone of inhibition at 0.03 % stood at 17 mm.
In the case of `[F][Sn][F]` [Solution C, stannous difluoride], the Inhibiting zone diameter in the series with Streptococcus mutans [2] (0.003 wt. %, 0.1 ml in 10 mm hole, 24 hours, 37° C., * = Not effective) came out at 10 mm; with Streptococcus mutans [2] (0.01 wt. %, 0.1 ml in 10 mm hole, 24 hours, 37° C.), 11 mm; in the series on Streptococcus mutans [2] (setting [7]) it was 20 mm. Further, the “Antibacterial action (in words)” value with Streptococcus mutans [2] is on record as “Not effective”; in the series on Streptococcus mutans [2] (listed as stannous difluoride), “an antibacterial action can no longer be detected”. The “Antibacterial effectiveness (in words)” value in the series with Streptococcus mutans [2] (0.03 wt.-%) was “even stronger action”.
For the compound `[H]/N=C(\N/C(=N/[H])NCCCCCCNC(=N)NC(=N)Nc1ccc(Cl)cc1)Nc1ccc(Cl)cc1` [chlorohexidine adduct, chlorohexidine hexahydrofluoride], the “Unwanted side-effects (bitter taste, discolorations of tooth materials, irritations of the mucosa)” value in series [3] is given as “no unwanted side-effects”. Besides, the Inhibiting zone diameter in the series on Streptococcus mutans [2] (0.003 wt. %, 0.1 ml in 10 mm hole, 24 hours, 37° C., * = Not effective, listed as Solution B) is recorded as 12 mm; with Streptococcus mutans [2] (0.01 wt. %, 0.1 ml in 10 mm hole, 24 hours, 37° C., listed as Solution B), 15 mm; in the series with Streptococcus mutans [2] (setting [7]), 17 mm. The “Antibacterial effectiveness (in words)” value is given as “still very high” in the series on Streptococcus mutans [2] (0.01 to 0.003 wt.-%); “comparable with that of chlorohexidine gluconate” in the series on Streptococcus mutans [2] (0.03 wt.-%); “completely comparable” with Streptococcus mutans [2] (0.03 wt.-%, listed as adduct according to the invention). The “Bactericidal effectiveness (in words)” value in the series on Streptococcus mutans [2] is recorded as “clearly superior to stannous difluoride”. In addition, the Solubility was 0.03 wt. % in series [4] (Acetone); less than 0.005 wt. % in series [4] (Decandiol dimethacrylate (D3 MA)); 0.005 wt. % in series [4] (Ethanol); 0.02 wt. % in series [4] (Ethyl acetate); less than 0.005 wt. % in series [4] (Triethylene glycol dimethacrylate (SR-205)); 300 µg/mL (≈ 594 µM) in series [4] (Water (pH value 2 to 9.7), read-out: Solubility). Further, the “Solubility (in words)” value in series [4] (common solvents) is reported as “quite a low solubility”.
Turning to `[H]/N=C(\N/C(=N/[H])NCCCCCCNC(=N)NC(=N)Nc1ccc(Cl)cc1)Nc1ccc(Cl)cc1` [chlorohexidine, 1,6-bis-(N^5-p-chlorophenyl-N'-diguanido)-hexane], the “Dis-colorations of the tongue, teeth, prostheses and fillings” value in series [5] is on record as “can lead to unwanted dis-colorations”. Further, the “Bactericidal effectiveness (in words)” value in the series on Streptococcus mutans [2] is given as “clearly exceeded”. Also, the “Effectiveness against bacteria of the type Streptococcus mutans (in words)” value in the series with Streptococcus mutans [6] is “effective”. Also, in the series with Streptococcus mutans [6] (small concentrations), the “Bactericidal effect vis-a-vis Streptococcus mutans (in words)” value is “greatly weakened”.
On to `[H]/N=C(\N/C(=N/[H])NCCCCCCNC(=N)NC(=N)Nc1ccc(Cl)cc1)Nc1ccc(Cl)cc1` [diacetate], for which the “Solubility (in words)” value in series [1] is “sparingly soluble”.
